Laboratory results from ChEMBL document CHEMBL1153760, “Identification and structure-activity relationships of chromene-derived selective estrogen receptor modulators for treatment of postmenopausal symptoms” (J Med Chem, 2009).

Tests used:
Rattus norvegicus = species on record: Rattus norvegicus; experiment: animal or person; format: functional; settings: Uterus, 72 h, route oral
Estrogen receptor [1] = biological target: T1, Estrogen receptor (Homo sapiens, UniProt P03372); experiment: Antagonist activity at estrogen receptor in human Ishikawa cells assessed as 17-beta-estradiol-induced alkaline phosphatase activity after 3 days by chemiluminescence assay; format: functional, cell-based
T1 sequence (P03372 whole entry): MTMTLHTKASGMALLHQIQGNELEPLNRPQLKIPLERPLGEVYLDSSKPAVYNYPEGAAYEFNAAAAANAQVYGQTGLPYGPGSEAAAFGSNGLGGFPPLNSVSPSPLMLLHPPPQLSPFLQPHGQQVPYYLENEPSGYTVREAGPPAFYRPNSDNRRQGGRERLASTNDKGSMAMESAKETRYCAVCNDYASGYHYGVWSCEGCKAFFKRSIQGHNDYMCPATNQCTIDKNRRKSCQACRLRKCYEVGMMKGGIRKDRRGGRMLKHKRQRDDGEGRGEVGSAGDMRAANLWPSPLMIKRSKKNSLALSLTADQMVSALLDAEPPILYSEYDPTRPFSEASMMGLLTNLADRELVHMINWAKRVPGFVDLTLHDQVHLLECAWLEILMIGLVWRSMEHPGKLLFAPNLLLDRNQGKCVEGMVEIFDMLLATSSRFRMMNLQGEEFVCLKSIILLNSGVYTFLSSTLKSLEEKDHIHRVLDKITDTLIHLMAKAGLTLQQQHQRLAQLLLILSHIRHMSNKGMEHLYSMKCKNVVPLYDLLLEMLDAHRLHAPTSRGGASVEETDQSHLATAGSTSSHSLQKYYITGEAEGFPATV

Estrogen receptor [2] = biological target: T1, Estrogen receptor; experiment: Displacement of radiolabeled estrogen from estrogen receptor alpha by scintillation counting
Estrogen receptor beta = Estrogen receptor beta (Homo sapiens, UniProt Q92731); experiment: Inhibition of fluormone ES2 binding to estrogen receptor beta after 1 hr by fluorescence polarization assay
Sequence of Estrogen receptor beta (Q92731 whole entry): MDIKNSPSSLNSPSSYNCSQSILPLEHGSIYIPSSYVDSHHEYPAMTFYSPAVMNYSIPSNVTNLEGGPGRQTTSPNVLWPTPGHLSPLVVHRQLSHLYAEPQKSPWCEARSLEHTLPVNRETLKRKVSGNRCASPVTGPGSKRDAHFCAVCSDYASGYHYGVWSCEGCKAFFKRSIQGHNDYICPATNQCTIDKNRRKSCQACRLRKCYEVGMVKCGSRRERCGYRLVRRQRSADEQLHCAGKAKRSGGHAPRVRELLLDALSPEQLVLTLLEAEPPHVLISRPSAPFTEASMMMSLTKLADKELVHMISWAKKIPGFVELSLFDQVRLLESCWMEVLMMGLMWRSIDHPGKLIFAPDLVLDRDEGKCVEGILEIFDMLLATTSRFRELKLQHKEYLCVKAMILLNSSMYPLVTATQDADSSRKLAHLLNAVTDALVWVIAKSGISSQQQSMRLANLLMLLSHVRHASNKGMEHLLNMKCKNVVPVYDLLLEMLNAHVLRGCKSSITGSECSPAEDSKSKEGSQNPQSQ

| SMILES | inhibition in vivo at 1 mg/kg (Rattus norvegicus) | IC50 (Estrogen receptor [1]) | IC50 (Estrogen receptor [2]) | IC50 (Estrogen receptor beta) |
| --- | --- | --- | --- | --- |
| Oc1ccc2c(c1)OCCC1=C2[C@@H](c2ccc(OCCN3CCCCC3)cc2)Oc2ccccc21 | 130% | 76 nM | 5.8 nM | 99 nM |
| CN1CCN(CCOc2cccc([C@H]3Oc4cc(O)ccc4C4=C3c3ccc(O)cc3OCC4)c2)CC1 | – | > 10000 nM | > 1000 nM | > 1000 nM |
| CN(C)CCOc1ccc([C@H]2Oc3cc(O)ccc3C3=C2c2ccccc2OCC3)cc1 | 23% | 8990 nM | 180 nM | 205 nM |
| OCCOc1ccc(C2Oc3cc(O)ccc3C3=C2c2ccc(O)cc2OCC3)cc1 (configuration not stated) | 0% | > 10000 nM | 310 nM | 11 nM |
| OCCCOc1ccc(C2Oc3cc(O)ccc3C3=C2c2ccc(O)cc2OCC3)cc1 (configuration not stated) | 0% | > 10000 nM | 326 nM | 44 nM |
| COc1ccc2c(c1)OCCC1=C2[C@H](c2ccc(OCCN3CCCCC3)cc2)Oc2cc(O)ccc21 | 20% | 150 nM | 4.2 nM | 24 nM |
| Oc1ccc2c(c1)O[C@H](c1ccc(OCCN3CCCC3)cc1)C1=C2CCOc2cc(O)ccc21 | 10% | 10 nM | 1.2 nM | 14 nM |
| CN1CCN(CCOc2ccc([C@H]3Oc4cc(O)ccc4C4=C3c3ccc(O)cc3OCC4)cc2)CC1 | 30% | 90 nM | 8.7 nM | 86 nM |
| CC(C)N(CCOc1ccc([C@H]2Oc3cc(O)ccc3C3=C2c2ccc(O)cc2OCC3)cc1)C(C)C | 30% | 287 nM | 5.4 nM | 20 nM |
| O=C(O)CCOc1ccc([C@@H]2Oc3cc(O)ccc3C3=C2c2ccc(O)cc2OCC3)cc1 | 0% | > 10000 nM | 580 nM | 44 nM |
| COc1ccc2c(c1)O[C@@H](c1ccc(OCCN3CCCCC3)cc1)C1=C2CCOc2cc(O)ccc21 | 12% | 25.9 nM | 6.3 nM | 63 nM |
| Oc1ccc2c(c1)O[C@@H](c1ccc(OCCCN3CCCCC3)cc1)C1=C2CCOc2cc(O)ccc21 | 15% | 590 nM | 55 nM | 19 nM |
| Oc1ccc2c(c1)O[C@@H](c1cccc(OCCN3CCCCC3)c1)C1=C2CCOc2cc(O)ccc21 | 0% | > 10000 nM | 190 nM | 200 nM |
| CN1CCN(CCOc2cccc([C@@H]3Oc4cc(O)ccc4C4=C3c3ccc(O)cc3OCC4)c2)CC1 | – | > 10000 nM | > 1000 nM | > 1000 nM |
| CN1CCN(CCOc2ccc([C@@H]3Oc4cc(O)ccc4C4=C3c3ccc(O)cc3OCC4)cc2)CC1 | 5% | > 10000 nM | 312 nM | 580 nM |
| Oc1ccc2c(c1)O[C@@H](c1ccc(OCCN3CCCCC3)cc1)C1=C2CCOc2cc(O)ccc21 | 88% | 32 nM | 3.4 nM | 16 nM |
| CCN(CC)CCOc1ccc([C@H]2Oc3ccccc3C3=C2c2ccc(O)cc2OCC3)cc1 | 80% | 113 nM | 5 nM | 108 nM |
| Oc1ccc2c(c1)OCCC1=C2[C@@H](c2ccc(OCCN3CCCCCC3)cc2)Oc2ccccc21 | 110% | 293 nM | 11 nM | 125 nM |
| COc1ccc2c(c1)O[C@@H](c1ccc(OCCN3CCCCC3)cc1)C1=C2CCOc2cc(OC)ccc21 | 7% | > 10000 nM | > 10000 nM | > 10000 nM |

| SMILES | inhibition in vivo at 1 mg/kg (Rattus norvegicus) | IC50 (Estrogen receptor [1]) | IC50 (Estrogen receptor [2]) | IC50 (Estrogen receptor beta) |
| --- | --- | --- | --- | --- |
| COC(=O)COc1ccc(C2Oc3cc(O)ccc3C3=C2c2ccc(O)cc2OCC3)cc1 (configuration not stated) | 0% | > 10000 nM | 4.8 nM | 16 nM |
| CCN(CC)CCOc1ccc([C@H]2Oc3cc(F)ccc3C3=C2c2ccc(O)cc2OCC3)cc1 | 80% | 113 nM | 5 nM | 108 nM |
| Oc1ccc2c(c1)O[C@@H](c1ccc(OCCN3CCOCC3)cc1)C1=C2CCOc2cc(O)ccc21 | 0% | > 10000 nM | 10 nM | 11 nM |
| Oc1ccc2c(c1)O[C@H](c1ccc(OCCN3CCCCCC3)cc1)C1=C2CCOc2ccccc21 | 11% | 2670 nM | 85 nM | 140 nM |
| Oc1ccc2c(c1)O[C@@H](c1ccc(OCCN3CCCCCC3)cc1)C1=C2CCOc2cc(O)ccc21 | 50% | – | – | 13.4 nM |
| O=C1CCC(=O)N1CCOc1ccc([C@H]2Oc3cc(O)ccc3C3=C2c2ccc(O)cc2OCC3)cc1 | 0% | > 10000 nM | 4.8 nM | 0.64 nM |
| O=C1CCC(=O)N1CCOc1ccc([C@@H]2Oc3cc(O)ccc3C3=C2c2ccc(O)cc2OCC3)cc1 | 0% | > 10000 nM | 6.2 nM | 18.6 nM |
| Oc1ccc2c(c1)OC(c1ccc(OCCN3CCCCC3)cc1)C1=C2CCOc2cc(O)ccc21 (configuration not stated) | 77% | 8 nM | 13 nM | 31 nM |
| Oc1ccc2c(c1)O[C@H](c1ccc(OCCCN3CCCCC3)cc1)C1=C2CCOc2cc(O)ccc21 | 23% | 420 nM | 22 nM | 31 nM |
| CCN(CC)CCOc1ccc([C@@H]2Oc3cc(F)ccc3C3=C2c2ccc(O)cc2OCC3)cc1 | 11% | 122 nM | 7 nM | 11 nM |
| Oc1ccc2c(c1)O[C@H](c1ccc(OCCN3CCOCC3)cc1)C1=C2CCOc2cc(O)ccc21 | 40% | 43 nM | 1.6 nM | 35 nM |
| Oc1ccc2c(c1)OCCC1=C2[C@H](c2ccc(OCCN3CCCCC3)cc2)Oc2ccccc21 | 20% | 150 nM | 4.2 nM | 24 nM |
| Oc1ccc2c(c1)OCCC1=C2[C@H](c2ccc(OCCN3CCCCCC3)cc2)Oc2ccccc21 | 28% | 68 nM | 4.5 nM | 22 nM |
| Oc1ccc2c(c1)O[C@H](c1ccc(OCCN3CCCCCC3)cc1)C1=C2CCOc2cc(O)ccc21 | 60% | – | – | 19 nM |
| CN(C)CCOc1ccc([C@@H]2Oc3cc(O)ccc3C3=C2c2ccccc2OCC3)cc1 | 20% | 158 nM | 11.1 nM | 30 nM |
| Oc1ccc2c(c1)O[C@H](c1cccc(OCCN3CCSCC3)c1)C1=C2CCOc2cc(O)ccc21 | – | > 10000 nM | > 1000 nM | > 1000 nM |
| Oc1ccc2c(c1)O[C@@H](c1ccc(OCCN3CCSCC3)cc1)C1=C2CCOc2cc(O)ccc21 | 0% | > 10000 nM | 111 nM | 390 nM |
| CN(C)CCOc1ccc([C@H]2Oc3ccccc3C3=C2c2ccc(O)cc2OCC3)cc1 | 55% | – | – | 105 nM |
| Oc1ccc2c(c1)O[C@@H](c1cccc(OCCN3CCSCC3)c1)C1=C2CCOc2cc(O)ccc21 | – | > 10000 nM | > 1000 nM | > 1000 nM |
